From article PMC10926205 (iScience, 2024)
Entries after “also recorded” stand apart in the source; their conditions may differ. Like-named read-outs stand apart in the source and are kept apart here. Blank lines part the entries; values can stand above or below the compound they belong to.

Key:
GREB1 [1] = experiment: GREB1 mRNA expression by qPCR in MCF-7; assay type: cell-based; details: MCF-7, 24 h; for GREB1 transcription (qPCR) compared to DMSO: E2 1nM, IBV 10nM, PHX, genistein, ±equol 100nM, neobavaisoflavone, bavachin, isobavachalcone, daidzein 1μM
ERα [2] = biological target: T1, ERα (Homo sapiens, UniProt P03372); experiment: cell-based; assay type: cell-based; details: for selectivity for either estrogen receptor: ERα vs ERβ array EC50; for EC50 / PRL-ERα EC50 (nM): array formation (DNA binding), 1 h; for EC50 / PRL-ERα EC50 (nM) / ERα DNA binding and transcription at the 100nM dose: ERα-GFP:PRL-HeLa
T1 sequence (P03372 1-595): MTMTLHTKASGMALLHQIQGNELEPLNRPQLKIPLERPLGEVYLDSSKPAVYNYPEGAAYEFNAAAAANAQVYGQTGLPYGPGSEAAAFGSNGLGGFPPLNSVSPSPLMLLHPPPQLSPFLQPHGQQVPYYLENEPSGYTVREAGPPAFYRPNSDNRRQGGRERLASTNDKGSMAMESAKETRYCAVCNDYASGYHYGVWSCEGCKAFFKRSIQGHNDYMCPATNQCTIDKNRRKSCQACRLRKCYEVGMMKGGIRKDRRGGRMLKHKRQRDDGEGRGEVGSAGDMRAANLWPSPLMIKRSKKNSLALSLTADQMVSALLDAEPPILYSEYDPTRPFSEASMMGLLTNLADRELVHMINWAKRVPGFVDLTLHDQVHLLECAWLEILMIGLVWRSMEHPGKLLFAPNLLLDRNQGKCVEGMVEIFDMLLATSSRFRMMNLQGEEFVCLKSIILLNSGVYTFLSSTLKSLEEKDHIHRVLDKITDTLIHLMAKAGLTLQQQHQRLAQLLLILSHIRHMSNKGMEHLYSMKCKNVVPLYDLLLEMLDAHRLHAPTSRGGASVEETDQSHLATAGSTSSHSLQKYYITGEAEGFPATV

ERβ [3] = biological target: T2, ERβ (Homo sapiens, UniProt Q92731); experiment: cell-based; assay type: cell-based
T2 sequence (Q92731 whole entry): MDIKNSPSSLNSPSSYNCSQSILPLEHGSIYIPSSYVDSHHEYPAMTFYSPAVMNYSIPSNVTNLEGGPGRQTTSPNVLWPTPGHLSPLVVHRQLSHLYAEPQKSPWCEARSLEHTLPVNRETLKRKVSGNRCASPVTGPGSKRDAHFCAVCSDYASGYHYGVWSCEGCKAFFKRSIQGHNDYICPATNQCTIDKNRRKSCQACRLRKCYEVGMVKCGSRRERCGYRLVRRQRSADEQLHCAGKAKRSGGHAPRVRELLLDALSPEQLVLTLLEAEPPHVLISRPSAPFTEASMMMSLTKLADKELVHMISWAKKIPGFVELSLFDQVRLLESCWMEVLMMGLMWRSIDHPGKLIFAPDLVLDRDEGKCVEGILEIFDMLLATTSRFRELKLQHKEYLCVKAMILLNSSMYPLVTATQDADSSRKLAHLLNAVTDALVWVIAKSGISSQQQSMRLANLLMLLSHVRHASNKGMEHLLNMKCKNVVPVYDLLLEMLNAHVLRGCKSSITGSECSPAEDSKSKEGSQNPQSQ

GREB1 [4] = experiment: GREB1 smRNA FISH; assay type: cell-based; details: MCF-7, 24 h; E2 1nM, IBV 10 and 100nM, PHX 100nM
[5] = test system: ERE-GFP in the heart valves; experiment: Transgenic zebrafish ERE-GFP reporter, heart valves; assay type: in vivo; details: highest nonlethal doses tested
MCF-7 cells = experiment: MCF-7 proliferation assay; assay type: cell-based; details: 120 h; for increase in cell number of MCF-7 cells: compared with DMSO
[6] = test system: ERE-GFP reporter in the liver; experiment: Transgenic zebrafish ERE-GFP reporter, liver; assay type: in vivo; details: for ER signal (ERE-GFP) in the liver: highest nonlethal doses tested; for ERE-GFP activation in the zebrafish (liver or heart): nonlethal doses tested (<100μM)
ERα or ERβ = assay type: cell-based; details: flavonoid screen, cell line not stated
ERβ [7] = biological target: T2, ERβ; experiment: dsRed2 reporter RNA FISH in GFP-ERβ:PRL-HeLa; assay type: cell-based; details: highest dose tested (10μM)
ERα [8] = biological target: T1, ERα; experiment: dsRed2 reporter RNA FISH in ERα-GFP:PRL-HeLa; assay type: cell-based
[9] = biological target: T3, progesterone receptor (GFP-PR) (Homo sapiens, UniProt P06401); experiment: GFP-PR PRL array biosensor cell line, array formation; assay type: cell-based; details: 100nM
T3 sequence (P06401 679-933 limits assumed): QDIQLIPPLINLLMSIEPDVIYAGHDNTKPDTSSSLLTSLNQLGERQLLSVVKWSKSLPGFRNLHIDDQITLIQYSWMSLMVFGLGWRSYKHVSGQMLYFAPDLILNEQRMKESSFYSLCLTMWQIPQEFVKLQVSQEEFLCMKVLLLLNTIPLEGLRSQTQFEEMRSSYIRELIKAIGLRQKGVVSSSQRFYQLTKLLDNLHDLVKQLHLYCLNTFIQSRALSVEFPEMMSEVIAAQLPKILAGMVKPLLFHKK

ERα [10] = details: read-out: EC50 for displacement of E2 from ERα in rat uteri; cited from earlier work
[11] = array formation (DNA binding), GFP-ERβ:PRL-HeLa, 1 h
[12] = read-out: PRL-ERβ EC50, array formation (DNA binding), GFP-ERβ:PRL-HeLa, 1 h

selectivity for either estrogen receptor (ERα [2]): > 5 fold
Structure (SMILES): CC(C)=CCc1cc2c(cc1O)O[C@H](c1ccc(O)cc1)CC2=O [Bavachin]
GREB1 transcription (qPCR) compared to DMSO (GREB1 [1]): activation of GREB1 transcription

Structure (SMILES): O=c1c(-c2ccc(O)cc2)coc2cc(O)ccc12 [Daidzein]
GREB1 transcription (qPCR) compared to DMSO (GREB1 [1]): activation of GREB1 transcription

Structure (SMILES): C[C@]12CC[C@@H]3c4ccc(O)cc4CC[C@H]3[C@@H]1CC[C@@H]2O [E2, 17β-estradiol, reference compound]
GREB1 transcription (qPCR) compared to DMSO (GREB1 [1]): activation of GREB1 transcription | fraction of cells with a visible array (ERβ [3]): 75% | induction of transcriptionally active GREB1 alleles (GREB1 [4]): significant induction | ER signal (ERE-GFP) in the heart [5]: activate ER signal | increase in cell number of MCF-7 cells (MCF-7 cells): 150% | ER signal (ERE-GFP) in the liver [6]: activate ER signal

Structure (SMILES): COc1cc(O)ccc1/C=C/C(=O)c1ccc(O)cc1 [Echinatin]
GREB1 gene expression compared to DMSO and E2 (GREB1 [1]; compounds 1μM, E2 10nM): induced expression to the same level as E2 | EC50 (ERβ [3]): 69.5 nM | PRL-ERβ EC50 (nM) (ERβ [3]; [11]): sub-micromolar | EC50 (ERα [2]; PRL-ERα EC50 (nM)): 174 nM | PRL-ERα EC50 (nM) (ERα [2]): sub-micromolar | EC50 in MCF-7 growth assay (MCF-7 cells): sub-micromolar | ERE-GFP activation in the zebrafish (liver or heart) [6]: Neither isosakuranetin, echinatin, nor loureirin A activated the ERE-GFP

Structure (SMILES): CN1CC[C@H](c2c(O)cc(O)c3c(=O)cc(-c4ccccc4Cl)oc23)[C@H](O)C1 [Flavopiridol (Alvocidib), Flavopiridol, reference compound]
transcriptional output (dsRed2 FISH) versus DMSO (ERα or ERβ): suppressed transcriptional output to a lower level than DMSO

Structure (SMILES): CN1CC[C@H](c2c(O)cc(O)c3c(=O)cc(-c4ccccc4Cl)oc23)[C@H](O)C1.Cl [Flavopiridol HCl, reference compound]
transcriptional output (dsRed2 FISH) versus DMSO (ERα or ERβ): suppressed transcriptional output to a lower level than DMSO

Structure (SMILES): O=c1c(-c2ccc(O)cc2)coc2cc(O)cc(O)c12 [Genistein]
GREB1 transcription (qPCR) compared to DMSO (GREB1 [1]): activation of GREB1 transcription

Structure (SMILES): COc1cc(-c2coc3cc(O)c(OC)c(O)c3c2=O)cc(O)c1OC [Irigenin]
transcriptional output (dsRed2 FISH) versus DMSO (ERα or ERβ): suppressed transcription

selectivity for either estrogen receptor (ERα [2]): > 5 fold
Structure (SMILES): CC(C)=CCc1c(O)ccc(C(=O)/C=C/c2ccc(O)cc2)c1O [Isobavachalcone]
GREB1 transcription (qPCR) compared to DMSO (GREB1 [1]): activation of GREB1 transcription

activity in GFP-ERβ:PRL-HeLa cells at the 100nM dose (ERβ [3]; 100nM): also active | EC50 (ERα [2]; PRL-ERα EC50 (nM)): 1.28 nM
Structure (SMILES): CC(C)=CCc1c(O)ccc2c1O[C@H](c1ccc(O)cc1)CC2=O [Isobavachin]
ERα DNA binding and transcription at the 100nM dose (ERα [2]): induced ERα DNA binding and transcription

dsRed2 reporter gene activation in GFP-ERβ:PRL-HeLa (ERβ [7]): did activate the dsRed2 reporter gene | RNA FISH expression in ERα-GFP:PRL-HeLa (ERα [8]; highest dose tested (10μM)): did not activate RNA FISH expression | preference for ERβ compared to ERα (ERβ [3]; array EC50): 5 fold | EC50 (ERβ [3]; [12]): 92.1 nM | EC50 (ERα [2]; read-out: PRL-ERα EC50): 508 nM
Structure (SMILES): C=CC(C)(C)c1cc(/C=C/C(=O)c2ccc(O)cc2)c(OC)cc1O [Licochalcone A]

Structure (SMILES): COc1ccc(CCC(=O)c2ccc(O)cc2)c(OC)c1 [Loureirin A]
PRL-ERβ EC50 (nM) (ERβ [3]; [11]): sub-micromolar | EC50 (ERβ [3]; [12]): 76.2 nM | PRL-ERα EC50 (nM) (ERα [2]): sub-micromolar | EC50 (ERα [2]; read-out: PRL-ERα EC50): 50 nM | EC50 in MCF-7 growth assay (MCF-7 cells): sub-micromolar | MCF-7 cell proliferation, reaching the level of E2 (MCF-7 cells): not able to reach the level of E2 | increase in cell number of MCF-7 cells (MCF-7 cells): 50% | ERE-GFP activation in the zebrafish (liver or heart) [6]: Neither isosakuranetin, echinatin, nor loureirin A activated the ERE-GFP

selectivity for either estrogen receptor (ERα [2]): > 5 fold
Structure (SMILES): CC(C)=CCc1cc(-c2coc3cc(O)ccc3c2=O)ccc1O [Neobavaisoflavone]
GREB1 transcription (qPCR) compared to DMSO (GREB1 [1]): activation of GREB1 transcription

Structure (SMILES): COc1ccc(-c2cc(=O)c3c(O)cc(O[C@@H]4O[C@H](CO)[C@@H](O)[C@H](O)[C@H]4O[C@@H]4O[C@@H](C)[C@H](O)[C@@H](O)[C@H]4O)cc3o2)cc1O [Neodiosmin]
ERα DNA binding and transcription at the 100nM dose (ERα [2]): induced ERα DNA binding and transcription

array formation in GFP-PR cell line (controls) [9]: successfully induced array formation
Structure (SMILES): CC(=O)[C@H]1CC[C@H]2[C@@H]3CCC4=CC(=O)CC[C@]4(C)[C@H]3CC[C@]12C [P4, progesterone]

gene transcription (dsRed2 RNA FISH) compared to DMSO (ERα [8]; 10μM, 1 h, hits in ERα-GFP:PRL-HeLa): suppress gene transcription
Structure (SMILES): CN1CCC(c2c(O)cc(O)c3c(=O)cc(-c4ccccc4Cl)oc23)C1CO (stereo not shown) [P276-00]
transcriptional output (dsRed2 FISH) versus DMSO (ERα or ERβ): suppressed transcriptional output to a lower level than DMSO; also recorded: suppressed transcription

Structure (SMILES): Oc1ccc(C2=Cc3ccc(O)cc3OC2)cc1 [Phenoxodiol (Haginin E), Phenoxodiol]
GREB1 transcription (qPCR) compared to DMSO (GREB1 [1]): activation of GREB1 transcription | activity in GFP-ERβ:PRL-HeLa cells at the 100nM dose (ERβ [3]): also active | ER signal (ERE-GFP) in the heart [5]: activate ER signal | EC50 (ERα [10]): ~500 nM | ER signal (ERE-GFP) in the liver [6]: activate ER signal

array formation in GFP-PR cell line (controls) [9]: successfully induced array formation
Structure (SMILES): CCC(=O)[C@@]1(C)CC[C@H]2[C@@H]3CCC4=CC(=O)CCC4=C3CC[C@@]21C [R5020]

activity in GFP-ERβ:PRL-HeLa cells at the 100nM dose (ERβ [3]; 100nM): also active
Structure (SMILES): Oc1ccc([C@H]2COc3cc(O)ccc3C2)cc1 [S-Equol]
ERα DNA binding and transcription at the 100nM dose (ERα [2]): induced ERα DNA binding and transcription
